17 compounds from US8921412B2, “C-aryl ansa SGLT2 inhibitors” (Green Cross Corporation, priority 2011, dated 2014) can be followed below.

Read-outs that look alike come from different tables or passages of the source.

Test in data set [1]: not given
This is another data set of the same source.

In a further data set the target is human SGLT2 (Homo sapiens (Human), UniProt P31639). Description: Inhibitory effects on human SGLT2 activities (14C-AMG uptake in CHO cells expressing hSGLT2). The settings on record: CHO cells stably expressing hSGLT2, 37° C., 2 h. Format: cell-based. The method, then:
Human SGLT2 (hSGLT2) gene was amplified by PCR from cDNA-Human Adult Normal Tissue Kidney (Invitrogen). The hSGLT2 sequence was cloned into pcDNA3.1(+) for mammalian expression and were stably transfected into chinese hamster ovary (CHO) cells. SGLT2-expressing clones were selected based on resistance to G418 antibiotic (Geneticin) and activity in the ^14C-α-methyl-D-glucopyranoside (^14C-AMG) uptake assay.
For sodium-dependent glucose transport assay, cells expressing hSGLT2 were seeded into a 96-well culture plate at a density of 5×10^4 cells/well in RPMI medium 1640 containing 10% fetal bovine serum. The cells were used 1 day after plating. They were incubated in pretreatment buffer (10 mM HEPES, 5 mM Tris, 140 mM choline chloride, 2 mM KCl, 1 mM CaCl2, and 1 mM MgCl2, pH 7.4) at 37° C. for 10 min. They were then incubated in uptake buffer (10 mM HEPES, 5 mM Tris, 140 mM NaCl, 2 mM KCl, 1 mM CaCl2, 1 mM MgCl2, and 1 mM ^14C-nonlabeled AMG pH 7.4) containing ^14C-labeled AMG (8 μM) and the inventive compound or dimethyl sulfoxide (DMSO) vehicle at 37° C. for 2 h. Cells were washed twice with washing buffer (pretreatment buffer containing 10 mM AMG at room temperature) and then the radioactivity was measured using a liquid scintillation counter. IC50 was determined by nonlinear regression analysis using GraphPad PRISM [Katsuno, K. et al. J. Pharmacol. Exp. Ther. 2007, 320, 323-330; Han, S. et al. Diabetes, 2008, 57, 1723-1729].

Sequence of human SGLT2 (P31639 whole entry): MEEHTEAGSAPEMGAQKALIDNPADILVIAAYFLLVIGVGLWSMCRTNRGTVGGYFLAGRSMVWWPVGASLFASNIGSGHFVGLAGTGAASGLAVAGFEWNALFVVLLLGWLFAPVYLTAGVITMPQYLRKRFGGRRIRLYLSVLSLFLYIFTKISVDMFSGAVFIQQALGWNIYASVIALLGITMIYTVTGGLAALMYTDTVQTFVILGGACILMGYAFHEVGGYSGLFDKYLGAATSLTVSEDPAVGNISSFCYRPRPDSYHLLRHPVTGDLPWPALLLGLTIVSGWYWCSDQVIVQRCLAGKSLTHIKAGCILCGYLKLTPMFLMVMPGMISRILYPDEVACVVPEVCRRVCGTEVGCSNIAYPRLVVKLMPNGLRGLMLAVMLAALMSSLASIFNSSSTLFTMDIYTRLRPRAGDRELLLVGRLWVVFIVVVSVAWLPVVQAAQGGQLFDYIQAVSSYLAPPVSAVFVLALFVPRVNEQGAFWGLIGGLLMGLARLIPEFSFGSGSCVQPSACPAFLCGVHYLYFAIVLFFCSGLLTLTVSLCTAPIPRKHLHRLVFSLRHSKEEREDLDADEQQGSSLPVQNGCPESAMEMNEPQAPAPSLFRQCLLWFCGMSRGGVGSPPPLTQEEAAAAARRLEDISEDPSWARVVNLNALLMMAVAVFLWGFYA

`CCOc1ccc(Cc2cc3c(cc2Cl)OCC=CCOC[C@H]2O[C@@H]3[C@H](OC(C)=O)[C@@H](OC(C)=O)[C@@H]2OC(C)=O)cc1` displayed a ring closure, isolated yield (from C=CCOC[C@H]1O[C@@H](c2cc(Cc3ccc(OCC)cc3)c(Cl)cc2OCC=C)[C@H](OC(C)=O)[C@@H](OC(C)=O)[C@@H]1OC(C)=O, rcm bond, 12-membered ring, Grubbs II (20 mol%), DCM, 5.0 mM, 60.0 °C) of 23%. In data set [1] (from C=CCOC[C@H]1O[C@@H](c2cc(Cc3ccc(OCC)cc3)c(Cl)cc2OCC=C)[C@H](OC(C)=O)[C@@H](OC(C)=O)[C@@H]1OC(C)=O, rcm bond, Grubbs 2nd generation catalyst, dichloromethane, 5.0 mM, 60.0 °C, 72.0 h), this compound registered a ring closure, yield of all isomers of 23%.

`CCOc1ccc(Cc2cc3c(cc2Cl)OCC=CCOC[C@H]2O[C@@H]3[C@H](OCc3ccccc3)[C@@H](OCc3ccccc3)[C@@H]2OCc2ccccc2)cc1` came in with a ring closure, isolated yield (from C=CCOC[C@H]1O[C@@H](c2cc(Cc3ccc(OCC)cc3)c(Cl)cc2OCC=C)[C@H](OCc2ccccc2)[C@@H](OCc2ccccc2)[C@@H]1OCc1ccccc1, rcm bond, 12-membered ring, Grubbs II (11 mol%), DCM, 9.6 mM, 60.0 °C) of 26%. This compound had a ring closure, yield of all isomers in data set [1] (from C=CCOC[C@H]1O[C@@H](c2cc(Cc3ccc(OCC)cc3)c(Cl)cc2OCC=C)[C@H](OCc2ccccc2)[C@@H](OCc2ccccc2)[C@@H]1OCc1ccccc1, rcm bond, Grubbs 2nd generation catalyst, dichloromethane, 9.6 mM, 60.0 °C, 16.0 h) of 26%.

Turning to `CCOc1ccc(Cc2cc3c(cc2Cl)OCCCCCOC[C@H]2O[C@@H]3[C@H](OCc3ccccc3)[C@@H](OCc3ccccc3)[C@@H]2OCc2ccccc2)cc1`, the ring closure, isolated yield (from CCOc1ccc(Cc2cc([C@@H]3O[C@H](COCCCCCI)[C@@H](OCc4ccccc4)[C@H](OCc4ccccc4)[C@H]3OCc3ccccc3)c(O)cc2Cl)cc1, ether bond, 13-membered ring, K2CO3/18-crown-6, toluene, 10.0 mM, 25.0 °C) is 64%. Also, in data set [1] (from CCOc1ccc(Cc2cc([C@@H]3O[C@H](COCCCCCI)[C@@H](OCc4ccccc4)[C@H](OCc4ccccc4)[C@H]3OCc3ccccc3)c(O)cc2Cl)cc1, ether bond, potassium carbonate / 18-crown-6, toluene, 10.0 mM, 25.0 °C, 16.0 h), the ring closure, yield of all isomers was determined as 64%.

For the compound `CCOc1ccc(Cc2cc3c(cc2Cl)OC[C@H]2C[C@H]2COC[C@H]2O[C@@H]3[C@H](OCc3ccccc3)[C@@H](OCc3ccccc3)[C@@H]2OCc2ccccc2)cc1`, the ring closure, isolated yield (from CCOc1ccc(Cc2cc([C@@H]3O[C@H](CO)[C@@H](OCc4ccccc4)[C@H](OCc4ccccc4)[C@H]3OCc3ccccc3)c(OC[C@H]3C[C@H]3CI)cc2Cl)cc1, ether bond, 12-membered ring, NaH, DMF, 47.0 mM, 25.0 °C) came out at 63%. Besides, the ring closure, yield of all isomers in data set [1] (from CCOc1ccc(Cc2cc([C@@H]3O[C@H](CO)[C@@H](OCc4ccccc4)[C@H](OCc4ccccc4)[C@H]3OCc3ccccc3)c(OC[C@H]3C[C@H]3CI)cc2Cl)cc1, ether bond, sodium hydride, N,N-dimethylformamide, 47.0 mM, 25.0 °C, 3.0 h) is 63%.

The term IC50 denotes the midpoint of a concentration-inhibition curve. Read a low IC50 as inhibition by little substance. For `CCOc1ccc(Cc2cc3c(cc2Cl)OC/C=C\COC[C@H]2O[C@@H]3[C@H](O)[C@@H](O)[C@@H]2O)cc1` [Example 1, (8R,9S,10R,11R,12S)-15-Chloro-14-(4-ethoxybenzyl)-2,5,7,8,9,10,11,12-octahydro-2H-8,12-epoxybenzo[g][1,6]dioxacyclotetradecine-9,10,11-triol], the concentration for half-maximal inhibition (IC50) on human SGLT2 stood at 0.974 nM. This lies in the sub-nanomolar range.

`CCOc1ccc(Cc2cc3c(cc2Cl)OCCCCOC[C@H]2O[C@@H]3[C@H](O)[C@@H](O)[C@@H]2O)cc1` [Example 2, (8R,9S,10R,11R,12S)-15-Chloro-14-(4-ethoxybenzyl)-2,3,4,5,7,8,9,10,11,12-decahydro-2H-8,12-epoxybenzo[g][1,6]dioxacyclotetradecine-9,10,11-triol] came in with an IC50 against human SGLT2 of 2.27 nM. Compared with the last compound, the IC50 is about 2.3-fold higher.

As for `CCOc1ccc(Cc2cc3c(cc2Cl)OCCCCCOC[C@H]2O[C@@H]3[C@H](O)[C@@H](O)[C@@H]2O)cc1` [Example 3, (9R,10S,11R,12R,13S)-16-Chloro-15-(4-ethoxybenzyl)-3,4,5,6,8,9,10,11,12,13-decahydro-2H-9,13-epoxybenzo[h][1,7]dioxacyclopentadecine-10,11,12-triol], the IC50 on human SGLT2 turned out to be 0.899 nM.

With `CCOc1ccc(Cc2cc3c(cc2Cl)OCCCCCCOC[C@H]2O[C@@H]3[C@H](O)[C@@H](O)[C@@H]2O)cc1` [Example 6, (10R,11S,12R,13R,14S)-17-Chloro-16-(4-ethoxybenzyl)-2,3,4,5,6,7,9,10,11,12,13,14-dodecahydro-10,14-epoxybenzo[i][1,8]dioxacyclohexadecine-11,12,13-triol], half-maximal inhibition on human SGLT2 (IC50) was put at 3.63 nM. This IC50 lies about 4-fold higher than the previous one.

As to `CCc1ccc(Cc2cc3c(cc2Cl)OCCCCOC[C@H]2O[C@@H]3[C@H](O)[C@@H](O)[C@@H]2O)cc1` [Example 8, (8R,9S,10R,11R,12S)-15-Chloro-14-(4-ethylbenzyl)-2,3,4,5,7,8,9,10,11,12-decahydro-8,12-epoxybenzo[g][1,6]dioxacyclotetradecine-9,10,11-triol], on human SGLT2, the midpoint of inhibition, the IC50, lay at 1.4 nM. This IC50 lies about 2.6-fold lower than the previous one.

At human SGLT2, `CCc1ccc(Cc2cc3c(cc2Cl)OCCCCCOC[C@H]2O[C@@H]3[C@H](O)[C@@H](O)[C@@H]2O)cc1` [Example 9, (9R,10S,11R,12R,13S)-16-Chloro-15-(4-ethylbenzyl)-3,4,5,6,8,9,10,11,12,13-decahydro-2H-9,13-epoxybenzo[h][1,7]dioxacyclopentadecine-10,11,12-triol] returned a half-inhibitory concentration (IC50) of 1.38 nM.

In turn, `CCc1ccc(Cc2cc3c(cc2Cl)OCCCCCCOC[C@H]2O[C@@H]3[C@H](O)[C@@H](O)[C@@H]2O)cc1` [Example 10, (10R,11S,12R,13R,14S)-17-Chloro-16-(4-ethylbenzyl)-2,3,4,5,6,7,9,10,11,12,13,14-dodecahydro-10,14-epoxybenzo[i][1,8]dioxacyclohexadecine-11,12,13-triol] came in with an IC50 against human SGLT2 of 1.4 nM.

Take `CSc1ccc(Cc2cc3c(cc2Cl)OCCCCOC[C@H]2O[C@@H]3[C@H](O)[C@@H](O)[C@@H]2O)cc1` [Example 11, (8R,9S,10R,11R,12S)-15-Chloro-14-(4-(methylthio)benzyl)-2,3,4,5,7,8,9,10,11,12-decahydro-8,12-epoxybenzo[g][1,6]dioxacyclotetradecine-9,10,11-triol]: half-maximal inhibition at human SGLT2 (IC50) was put at 1.35 nM.

Regarding `CSc1ccc(Cc2cc3c(cc2Cl)OCCCCCOC[C@H]2O[C@@H]3[C@H](O)[C@@H](O)[C@@H]2O)cc1` [Example 12, (9R,10S,11R,12R,13S)-16-Chloro-15-(4-(methylthio)benzyl)-3,4,5,6,8,9,10,11,12,13-decahydro-2H-9,13-epoxybenzo[h][1,7]dioxacyclopentadecine-10,11,12-triol], 0.778 nM corresponded to half-maximal inhibition against human SGLT2 (IC50).

For the compound `O[C@@H]1[C@@H](O)[C@H]2O[C@H](COCCCCOc3cc(Cl)c(Cc4ccc5c(c4)OCCO5)cc32)[C@H]1O` [Example 13, (8R,9S,10R,11R,12S)-15-Chloro-14-((2,3-dihydrobenzo[b][1,4]dioxin-6-yl)-methyl)-2,3,4,5,7,8,9,10,11,12-decahydro-8,12-epoxybenzo[g][1,6]dioxacyclotetradecine-9,10,11-triol], the midpoint of inhibition against human SGLT2, the IC50, lay at 3.65 nM.

`O[C@@H]1[C@@H](O)[C@H]2O[C@H](COCCCCCOc3cc(Cl)c(Cc4ccc5c(c4)OCCO5)cc32)[C@H]1O` [Example 14, (9R,10S,11R,12R,13S)-16-Chloro-15-((2,3-dihydrobenzo[b][1,4]dioxin-6-yl)-methyl)-3,4,5,6,8,9,10,11,12,13-decahydro-2H-9,13-epoxybenzo[h][1,7]dioxacyclopentadecine-10,11,12-triol]: on human SGLT2, the IC50 was 1.38 nM.

Compound `CCOc1ccc(Cc2cc3c(cc2Cl)OC[C@H]2C[C@H]2COC[C@H]2O[C@@H]3[C@H](O)[C@@H](O)[C@@H]2O)cc1` [Example 15, (4R,5S,6R,7R,8S)-11-Chloro-10-(4-ethoxybenzyl)-(1aR,14aS)-1a,2,4,5,6,7,8,9,10-octahydro-1H-4,8-epoxybenzo[g]cyclopropa[c][1,6]dioxacyclotetradecine-5,6,7-triol] showed an IC50 against human SGLT2 of 2.3 nM.

The compound `CCOc1ccc(Cc2cc3c(cc2Cl)OC[C@@H]2C[C@@H]2COC[C@H]2O[C@@H]3[C@H](O)[C@@H](O)[C@@H]2O)cc1` [Example 16, (4R,5S,6R,7R,8S)-11-Chloro-10-(4-ethoxybenzyl)-(1aS,14aR)-1a,2,4,5,6,7,8,9,10-octahydro-1H-4,8-epoxybenzo[g]cyclopropa[c][1,6]dioxacyclotetradecine-5,6,7-triol] returned an IC50 at human SGLT2 of 14 nM. This IC50 is about 6.1-fold higher than that of the compound before.
